The values that follow come from patent US9328099B2, “Cyanomethylpyrazole carboxamides as janus kinase inhibitors” (Merck Sharp & Dohme Corp., priority 2011, dated 2016).

Where only a bound is given, the exact number is not on record here.

In one test the target is JAK2 (Homo sapiens (Human), UniProt O60674). The test can be described thus: Jak Biochemical HTRF Assay, JAK2. The following applies: HTRF biochemical assay, GST-tagged catalytic domain; top concentration tested […]. From the text:
(§1) Jak Biochemical HTRF Assay Protocol
(§2) Subsequent reagent additions employed an Agilent Bravo.

For a further test, the target named is JAK1 (Homo sapiens (Human), UniProt P23458). Briefly: Jak Biochemical HTRF Assay, JAK1. Particulars: HTRF biochemical assay, GST-tagged catalytic domain; top concentration tested […]; read-out: JAK1 IC50.
Chain of JAK1 (P23458 875-1153): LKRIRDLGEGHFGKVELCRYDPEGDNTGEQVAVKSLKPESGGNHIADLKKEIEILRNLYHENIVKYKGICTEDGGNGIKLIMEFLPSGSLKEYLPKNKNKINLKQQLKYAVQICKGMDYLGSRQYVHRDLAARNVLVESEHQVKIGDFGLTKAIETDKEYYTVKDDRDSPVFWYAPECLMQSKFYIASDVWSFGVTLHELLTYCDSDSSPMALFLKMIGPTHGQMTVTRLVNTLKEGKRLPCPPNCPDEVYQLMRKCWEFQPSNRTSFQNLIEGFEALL
Text: as §1, §2

Chain of JAK2 (O60674 849-1124): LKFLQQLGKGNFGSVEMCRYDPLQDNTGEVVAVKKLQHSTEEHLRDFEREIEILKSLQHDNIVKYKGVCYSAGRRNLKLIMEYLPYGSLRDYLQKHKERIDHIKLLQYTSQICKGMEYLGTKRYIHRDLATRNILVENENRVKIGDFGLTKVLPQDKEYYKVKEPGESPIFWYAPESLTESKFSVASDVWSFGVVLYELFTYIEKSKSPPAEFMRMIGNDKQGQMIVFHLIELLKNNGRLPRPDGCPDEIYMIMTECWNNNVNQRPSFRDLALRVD

For `N#CCC1(n2cc(C(N)=O)c(Nc3ccnc(F)c3)n2)CCC(NCc2ccccc2)CC1` (stereo not drawn) [Example 41-28, Cis or trans 1-[4-(benzylamino)-1-(cyanomethyl)cyclohexyl]-3-[(2-fluoropyridin-4-yl)amino]-1H-pyrazole-4-carboxamide], the IC50 on JAK2 worked out at 735 nM; on JAK1 it was 20 nM.
Turning to `Cc1ccc(N2CCC(CC#N)(n3cc(C(N)=O)c(Nc4ccc(F)cc4)n3)CC2)cc1` [Example 3-39, 1-[4-(cyanomethyl)-1-(4-methylphenyl)piperidin-4-yl]-3-[(4-fluorophenyl)amino]-1H-pyrazole-4-carboxamide], the IC50 was determined as 117 nM against JAK2 and 4 nM on JAK1.
For `N#CCC1(n2cc(C(N)=O)c(Nc3ccc(F)cc3)n2)CCN(c2ccc(C(O)C(F)(F)F)cc2)CC1` (stereo not drawn) [Example 3-9, 1-{4-(cyanomethyl)-1-[4-(2,2,2-trifluoro-1-hydroxyethyl)phenyl]piperidin-4-yl}-3-[(4-fluorophenyl)amino]-1H-pyrazole-4-carboxamide], the IC50 is 37 nM against JAK2 and 1 nM on JAK1.
The corresponding values for `CC(C)(C)OC(=O)NC1CCC(CC#N)(n2cc(C(N)=O)c(Nc3ccccc3)n2)CC1` (single isomer, unassigned) [Example 2-19, (1s,3s or 1r,3r) tert-butyl {4-[4-carbamoyl-3-(phenylamino)-1H-pyrazol-1-yl]-4-(cyanomethyl)cyclohexyl}carbamate] are 267 nM and 12 nM.
The corresponding values for `C/C=C/C(=O)N1CCC(CC#N)(n2cc(C(N)=O)c(Nc3ccccc3)n2)CC1` [Example 33-2, 1-{1-[(2E)-but-2-enoyl]-4-(cyanomethyl)piperidin-4-yl}-3-(phenylamino)-1H-pyrazole-4-carboxamide] are 64 nM and 2 nM.
Take `N#CC[C@]1(n2cc(C(N)=O)c(Nc3ccc(S(=O)(=O)C(F)F)cc3)n2)CC[C@H](N)CC1` [Example 41-2]: the IC50 was greater than 1500 nM at JAK2 and 86 nM on JAK1.
The corresponding values for `COC1CN(C2CCC(CC#N)(n3cc(C(N)=O)c(Nc4ccnc(F)c4)n3)CC2)C1` (stereo not drawn) [Example 40-94, Cis or trans 1-[1-(cyanomethyl)-4-(3-methoxyazetidin-1-yl)cyclohexyl]-3-[(2-fluoropyridin-4-yl)amino]-1H-pyrazole-4-carboxamide] are greater than 1500 nM and 234 nM.
The corresponding values for `N#CCC1(n2cc(C(N)=O)c(Nc3ccnc(F)c3)n2)CCN(C(=O)OC2CCOCC2)CC1` [Example 30-17, tetrahydro-2H-pyran-4-yl 4-{4-carbamoyl-3-[(2-fluoropyridin-4-yl)amino]-1H-pyrazol-1-yl}-4-(cyanomethyl)piperidine-1-carboxylate] are 96 nM and 3 nM.
The corresponding values for `CC(C)NC(=O)N1CCC(CC#N)(n2cc(C(N)=O)c(Nc3ccc(S(=O)(=O)C(F)(F)F)cc3)n2)CC1` [Example 38-44, 4-(4-carbamoyl-3-(4-(trifluoromethylsulfonyl)phenylamino)-1H-pyrazol-1-yl)-4-(cyanomethyl)-N-isopropylpiperidine-1-carboxamide] are 2 nM and 0.1 nM.
Regarding `Cc1cnc(F)c(CN2CCC(CC#N)(n3cc(C(N)=O)c(Nc4ccnc(F)c4)n3)CC2)c1` [Example 22-22, 1-{4-(cyanomethyl)-1-[(2-fluoro-5-methylpyridin-3-yl)methyl]piperidin-4-yl}-3-[(2-fluoropyridin-4-yl)amino]-1H-pyrazole-4-carboxamide], the IC50 against JAK2 worked out at 13 nM; on JAK1 it was 0.4 nM.
The corresponding values for `CC(C)(C)OC(=O)N1CC[C@](CC#N)(n2cc(C(N)=O)c(Nc3ccc(F)cc3)n2)[C@@H](F)C1` (racemic) [Example 6-3, tert-butyl (3S,4R and 3R,4S)-4-{4-carbamoyl-3-[(4-fluorophenyl)amino]-1H-pyrazol-1-yl}-4-(cyanomethyl)-3-fluoropiperidine-1-carboxylate] are 25 nM and 1 nM.
The corresponding values for `Cc1cnc(F)c(CN2CCC(CC#N)(n3cc(C(N)=O)c(Nc4ccc(F)cc4)n3)CC2)c1` [Example 22-44, 1-{4-(cyanomethyl)-1-[(2-fluoro-5-methylpyridin-3-yl)methyl]piperidin-4-yl}-3-[(4-fluorophenyl)amino]-1H-pyrazole-4-carboxamide] are 22 nM and 5 nM.
With `N#CCC1(n2cc(C(N)=O)c(Nc3ccc(F)cc3)n2)CCN(Cc2cc3ccccc3[nH]2)CC1` [Example 22-43, 1-[4-(cyanomethyl)-1-(1H-indol-2-ylmethyl)piperidin-4-yl]-3-[(4-fluorophenyl)amino]-1H-pyrazole-4-carboxamide], the IC50 on JAK2 came out at 64 nM; on JAK1, 1 nM.
For the compound `N#CCC1(n2cc(C(N)=O)c(Nc3ccnc(F)c3)n2)CCN(Cc2ccc(C#N)cc2)CC1` [Example 22-69, 1-[1-(4-cyanobenzyl)-4-(cyanomethyl)piperidin-4-yl]-3-[(2-fluoropyridin-4-yl)amino]-1H-pyrazole-4-carboxamide], the half-inhibitory concentration (IC50) amounted to 9 nM against JAK2 and 0.2 nM at JAK1.
The corresponding values for `N#CCC1(n2cc(C(N)=O)c(Nc3ccc(F)cc3)n2)CCN(c2cccc(C#N)n2)CC1` [Example 3-18, 1-[4-(cyanomethyl)-1-(6-cyanopyridin-2-yl)piperidin-4-yl]-3-[(4-fluorophenyl)amino]-1H-pyrazole-4-carboxamide] are 89 nM and 3 nM.
The corresponding values for `CCOc1ccc(NC(=O)N2CC(CC#N)(n3cc(C(N)=O)c(Nc4ccccc4)n3)C2)cc1` [Example 38-26, 1-{3-(cyanomethyl)-1-[(4-ethoxyphenyl)carbamoyl]azetidin-3-yl}-3-(phenylamino)-1H-pyrazole-4-carboxamide] are 69 nM and 2 nM.
As for `N#CCC1(n2cc(C(N)=O)c(Nc3ccccc3)n2)CCN(C(=O)C(c2ccccc2)c2ccccc2)CC1` [Example 34-33, 1-[4-(cyanomethyl)-1-(diphenylacetyl)piperidin-4-yl]-3-(phenylamino)-1H-pyrazole-4-carboxamide], the IC50 against JAK2 turned out to be 711 nM; on JAK1, 153 nM.
The corresponding values for `CC(C)(C)OC(=O)N1CCC(CC#N)(n2cc(C(N)=O)c(Nc3cccc(-c4ccc5ccccc5c4)c3)n2)CC1` [Example 15-9, tert-butyl 4-{4-carbamoyl-3-[(3-naphthalen-2-ylphenyl)amino]-1H-pyrazol-1-yl}-4-(cyanomethyl)piperidine-1-carboxylate] are 1480 nM and 644 nM.
For `Cc1c(CN2CCC(CC#N)(n3cc(C(N)=O)c(Nc4ccnc(F)c4)n3)CC2)cnn1C` [Example 22-40, 1-{4-(cyanomethyl)-1-[(1,5-dimethyl-1H-pyrazol-4-yl)methyl]piperidin-4-yl}-3-[(2-fluoropyridin-4-yl)amino]-1H-pyrazole-4-carboxamide], the IC50 at JAK2 came to 582 nM; on JAK1, 23 nM.
The corresponding values for `Cn1cc(C(=O)N2CCC(CC#N)(n3cc(C(N)=O)c(Nc4ccnc(F)c4)n3)CC2)cn1` [Example 34-44, 1-{4-(cyanomethyl)-1-[(1-methyl-1H-pyrazol-4-yl)carbonyl]piperidin-4-yl}-3-[(2-fluoropyridin-4-yl)amino]-1H-pyrazole-4-carboxamide] are 63 nM and 2 nM.
The corresponding values for `COCCOC(=O)N1CCC(CC#N)(n2cc(C(N)=O)c(Nc3ccccc3)n2)CC1` [Example 30-35, 2-methoxyethyl 4-[4-carbamoyl-3-(phenylamino)-1H-pyrazol-1-yl]-4-(cyanomethyl)piperidine-1-carboxylate] are 71 nM and 4 nM.
The corresponding values for `N#CCC1(n2cc(C(N)=O)c(Nc3ccnc(F)c3)n2)CCN(Cc2ccco2)CC1` [Example 22-19, 1-[4-(cyanomethyl)-1-(furan-2-ylmethyl)piperidin-4-yl]-3-[(2-fluoropyridin-4-yl)amino]-1H-pyrazole-4-carboxamide] are 25 nM and 0.7 nM.
On to `N#CCC1(n2cc(C(N)=O)c(Nc3ccccc3)n2)CN(C(=O)Nc2ccc(C#N)cc2)C1` [Example 38-15, 1-{3-(cyanomethyl)-1-[(4-cyanophenyl)carbamoyl]azetidin-3-yl}-3-(phenylamino)-1H-pyrazole-4-carboxamide], for which the concentration for half-maximal inhibition (IC50) against JAK2 is 21 nM; at JAK1 it was 0.9 nM.
The corresponding values for `N#CCC1(n2cc(C(N)=O)c(Nc3ccc(F)cc3)n2)CCN(c2cccc(CF)n2)CC1` [Example 3-50, 1-{4-(cyanomethyl)-1-[6-(fluoromethyl)pyridin-2-yl]piperidin-4-yl}-3-[(4-fluorophenyl)amino]-1H-pyrazole-4-carboxamide] are 39 nM and 3 nM.
The corresponding values for `Cn1cc(-c2cccc(Nc3nn(C4(CC#N)CCN(C(=O)OCC(F)(F)F)CC4)cc3C(N)=O)c2)cn1` [Example 10-5, 2,2,2-trifluoroethyl 4-(4-carbamoyl-3-(3-(1-methyl-1H-pyrazol-4-yl)phenylamino)-1H-pyrazol-1-yl)-4-(cyanomethyl)piperidine-1-carboxylate] are 21 nM and 0.2 nM.
The corresponding values for `N#CCC1(n2cc(C(N)=O)c(Nc3ccc(F)cc3)n2)CCN(C(=O)OCC2(O)CC2)CC1` [Example 30-13, (1-hydroxycyclopropyl)methyl 4-(4-carbamoyl-3-(4-fluorophenylamino)-1H-pyrazol-1-yl)-4-(cyanomethyl)piperidine-1-carboxylate] are 20 nM and 0.9 nM.
On to `CCCNC(=O)N1CC(CC#N)(n2cc(C(N)=O)c(Nc3ccccc3)n2)C1` [Example 38-18, 1-[3-(cyanomethyl)-1-(propylcarbamoyl)azetidin-3-yl]-3-(phenylamino)-1H-pyrazole-4-carboxamide], for which the concentration for half-maximal inhibition (IC50) amounted to 106 nM at JAK2 and 7 nM at JAK1.
